Source: patent US20230257703A1, “NANOSCALE POLYMERIC MICELLAR SCAFFOLDS FOR RAPID AND EFFICIENT ANTIBODY PRODUCTION” (Iowa State University Research Foundation, Inc., priority 2020, published 2023)

Key:
[1] = system: splenic B cells of Ighel Tg mice (BCRs specific to HEL); assay: CFSE B cell proliferation and viability, splenic cells of Ighel Tg mice; assay type: cell-based; settings: 10 µg/mL, 4 days
[2] = system: murine splenic B cells (CD19+); assay: Nur77 expression in B cells by flow cytometry (BCR engagement); assay type: cell-based, mice; settings: micelle-Ag 10 µg/mL each component, LPS 0.5 µg/mL, anti-IgM F(ab′)2 10 µg/mL
Description: B cell proliferation was detected using in vitro labeling of cells with CFSE and analysis by flow cytometry. Distinct generations of proliferating cells can be monitored by dilutions of CFSE stain on the cells as viewed on the flow cytometry plots. For the flow cytometry procedure, the cells were transferred into polystyrene FACS tubes and labelled with Zombie Aqua dye for tracking viable cells post-stimulation using manufacturer’s instructions. […] For intracellular staining of Nur77 antibody, following surface staining, cells were washed with PBS and then fixed with 4% p-formaldehyde. After washing the cells again with PBS, 0.1% Triton X-100 was used for permeabilization, and following that, Nur77 Ab at a 1:50 dilution was used to stain the cells. After the staining, cells were washed in FACS buffer to remove excess dye and samples were fixed prior to analysis. The flow cytometry data was collected on FACSCanto II (BD Bioscience, NJ) and analyzed using FlowJo (FlowJo LLC, Ashland, CA).

Substance	B cell proliferation (CFSE^lo peaks) [1]	Nur77 induction [2]
hen egg white lysozyme [HEL]	small peak with some proliferation	–
lipopolysaccharide [LPS]	–	did not trigger Nur77 induction
